Holding throughout (type): functional, cell-based
The subject of one assay is OVCAR-3. The assay is described as follows: Cytotoxicity against human OVCAR3 cells after 2 days by XTT assay. Conditions: OVCAR-3, 48 h.
Assay [1] in a line: Cytotoxicity against human LOX cells after 2 days by XTT assay. Conditions: 48 h. (Tetrazolium assays rely on reduction of a dye to a coloured formazan, in cell work by metabolically active cells.)
The test system of another assay is SNB-19. The assay can be described thus: Cytotoxicity against human SNB19 cells after 2 days by XTT assay. Conditions: SNB-19, 48 h.
For another assay, the system named is COLO 205. The assay is described as follows: Cytotoxicity against human COLO205 cells after 2 days by XTT assay. Conditions: COLO 205, 48 h.
For a further assay, the system named is MOLT-4. The assay is described as follows: Cytotoxicity against human MOLT4 cells after 2 days by XTT assay. As to conditions: MOLT-4, 48 h.

Data on one compound can be found in ChEMBL document CHEMBL1799909, “Lithothamnin A, the first bastadin-like metabolite from the red alga Lithothamnion fragilissimum” (J Nat Prod, 2011).

With `O=C1NCCc2cc(Br)c(O)c(c2)Oc2cc(O)c(cc2Br)CCNC(=O)/C(=N/O)Cc2c(O)cc(Br)c(c2Br)Oc2cc(cc(Br)c2O)C/C1=N\O` [LITHOTHAMNIN A], the concentration for half-maximal inhibition (IC50) in the assay with OVCAR-3 came out at 7.6 µM; in assay [1], 9.5 µM; with SNB-19 it was 7.6 µM; with COLO 205, 19 µM; in the assay on MOLT-4, 19 µM.

A word on the IC50: it is the concentration that gives 50% inhibition. A low value points to greater potency.
